In patent US20130064812A1, “COMBINATION THERAPIES FOR HEMATOLOGIC MALIGNANCIES” (Gilead Calistoga LLC, priority 2011, published 2013):

Experiments:
HuVECs = experiment: In vitro angiogenesis assay (tube formation); type: cell-based, human; conditions: 0, 1.0, or 10 μM, 8 h; p<0.05
Experimental: HUVEC and endothelial growth media were obtained from Lonza (Walkersville, Md., USA). […] After 8 h, tube formation was evaluated using Leika DM IL microscopy (Leica Microsystems, Wetzlar, Germany) and analyzed with IM50 software (Leica Microsystems Imaging Solutions, Cambridge, UK). HUVEC cell migration and rearrangement was visualized, and the number of branching points counted.
The effect of P110δ inhibition on angiogenesis was investigated.

[1] = tested on: T47D and HS-578T cell lines; experiment: Proliferation of breast cancer cell lines (AlamarBlue); type: cell-based; conditions: 48 hrs and 72 hrs
Experimental: T47D and HS-578T cell lines were grown in the presence of serum plus the indicated concentrations of the compound of formula I. Proliferation was measured in triplicate wells by AlamarBlue® assay (Invitrogen) 96-well plates.

LB and INA-6 cells = experiment: MM cell growth with IL-6 or IGF-1 ([3H]-thymidine); type: cell-based, human; conditions: 5.0 or 10 μM; IL-6 1 and 10 ng/ml, IGF-1 10 and 100 ng/mL
Experimental: DNA synthesis was determined by measuring [3H]-thymidine incorporation during the last 8 h of 72 h cultures. Data represent means (±SD) of triplicate cultures.

PI3K-δ = experiment: PI3K ELISA assay on CLL cell lysates with lenalidomide; type: cell-based, human; conditions: 0.5 μM lenalidomide; 1 or 10 μM compound added to lysate; N=9
Experimental: PI3K assay was preformed on whole cell lysates from CLL cells. The ELISA assay was performed according to the manufacture's instructions (Echelon Biosciences, Salt Lake City, Utah).
To first confirm the specificity of PI3-kinase activation, the direct increase in the enzymatic activity of PI3K following treatment with lenalidomide was determined. […] Results were calculated relative to μg of protein. Signaling with lenalidomide through the PI3K pathway can occur through four catalytic isoforms: p110α, p110β, p110γ, and p110δ.

[2] = tested on: relapsed or refractory indolent B-cell NHL and CLL; experiment: Clinical study, combination with rituximab or bendamustine, 20 patients (Example 39); conditions: human, in vivo
Experimental: 20 patients were enrolled, including 12 with iNHL and 8 with CLL. All patients received the compound of formula I, either 100 mg orally twice per day (BID) or 150 mg orally twice per day (BID) for as long as the patient was benefiting. Patients also received either rituximab 375 mg/m^2 administered weekly for 8 weeks, starting on Day 1 of Cycle 1, or bendamustine 90 mg/m^2 administered on Days 1 and 2 of each cycle for 6 cycles. Tumor response was evaluated according to standard criteria.

PIP5Kβ = PIP5Kβ (Homo sapiens, UniProt O14986); experiment: InvitroGen Adapta kinase assay, PIP5Kβ; type: biochemical; conditions: Other Phosphoinositide kinases; head prints no unit
[3] = human, in vivo
Experimental: This example provides data relating to the concentration of the compound of formula I in the blood of a healthy human subject on day 7. The concentration was monitored over a period of 12 hours, after oral administration of 50, 100, or 200 mg BID of the compound of formula I on day 7 of the study. FIG. 11 follows the plasma concentration of the drug over a period of 12 hours from administration.
In addition, single dose studies wherein 17-400 mg of the compound of formula I was administered in healthy volunteers was carried out.
Table 1, below, provides an overview of the subjects in the study, wherein either a singe dose (SD) or multiple dose (MD) of the compound of formula I is administered to a subject at varying amounts. The “n” values refer to the number of subjects in each group.

[4] = tested on: CD19+ cells from CLL patients; experiment: Surface CD40, CD86, CD20 on CD19+ CLL cells (flow cytometry); type: cell-based, human; conditions: 0.5 μM lenalidomide and/or 10 μM compound, 48 hours
Experimental: Antibodies to CD20, CD40, CD80, CD86 or IgG1 (BD Biosciences, San Jose Calif.) were surface stained.
To extend these findings, inhibition of PI3K-δ prevented lenalidomide was investigated to see whether it induced up-regulation of other co-stimulatory molecules important to B-cell antigen presentation. […] Surface expression of CD40 or CD86 was evaluated by flow cytometry using a CD40- or CD86-PE antibodies and IgG1-PE isotype control.
Internalization of CD20 was evaluated by quantifying surface expression of CD20 by flow cytometry using a CD20-PE antibodies and IgG1-PE isotype control.

CLL patients = experiment: Samples from CLL patients undergoing treatment (phospho-flow, plasma cytokines); type: in vivo, human
[5] = tested on: primary MCL cells and MCL cell lines; experiment: PI3K signaling in primary MCL cells and MCL cell lines; type: cell-based, human
mTOR = mTOR (Homo sapiens, UniProt P42345); experiment: InvitroGen Adapta kinase assay, mTOR; type: biochemical
AKT and ERK pathways = experiment: AKT and ERK pathway phosphorylation in MM cells (immunoblot); type: cell-based, human
Text: Whole-cell lysates were subjected to sodium dodecyl sulfate-polyacrylamide gel electrophoresis (SDS-PAGE) separation, transferred to Pure Nitrocellulose membranes (Bio-Rad Laboratories, Hercules, Calif.), and immunoblotted with anti-AKT, phospho(p)-AKT (Ser473, Thr 308), ERK1/2, P-ERK1/2, P-PDK1, STAT, P-STAT, P-FKRHL, P-70S6K, LC3, and PI3K/p110α Abs (Cell Signaling Danvers, Mass.); anti-p110β, PI3K/p110δ, Glyceraldehyde 3-phosphate dehydrogenase (GAPDH), α-tubulin, and actin Abs (Santa Cruz Biotechnology, CA); and anti-p110γ Ab (Alexis, San Diego, Calif.): and anti-LC3 Ab (Abgent, San Diego, Calif.).
Actin Ab was used as a loading control. […] Whole cell lysates were subjected to immunoblotting using AKT, P-AKT (Ser473 and Thr308), ERK1/2, P-ERK1/2, P-PDK1, and P-FKRHL antibodies. α-tubulin is used as a loading control.

Chain of PIP5Kβ (O14986 whole entry): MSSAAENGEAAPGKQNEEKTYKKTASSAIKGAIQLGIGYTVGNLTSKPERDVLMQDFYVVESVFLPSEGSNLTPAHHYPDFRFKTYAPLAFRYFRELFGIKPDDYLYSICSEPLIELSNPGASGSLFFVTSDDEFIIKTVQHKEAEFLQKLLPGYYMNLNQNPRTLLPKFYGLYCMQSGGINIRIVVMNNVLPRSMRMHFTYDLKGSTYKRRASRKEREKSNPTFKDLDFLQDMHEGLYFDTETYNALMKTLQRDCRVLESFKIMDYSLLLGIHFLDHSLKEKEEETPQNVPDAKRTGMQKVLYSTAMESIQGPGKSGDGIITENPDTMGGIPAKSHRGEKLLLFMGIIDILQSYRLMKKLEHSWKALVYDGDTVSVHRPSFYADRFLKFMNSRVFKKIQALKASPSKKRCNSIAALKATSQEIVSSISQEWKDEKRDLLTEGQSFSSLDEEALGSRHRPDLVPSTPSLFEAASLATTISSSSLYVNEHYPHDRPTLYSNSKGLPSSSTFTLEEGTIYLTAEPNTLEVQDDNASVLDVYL

## CC[C@H](Nc1ncnc2[nH]cnc12)c1nc2cccc(F)c2c(=O)n1-c1ccccc1 [Compound I, 5-fluoro-3-phenyl-2-[1-(9H-purin-6-ylamino)-propyl]-3H-quinazolin-4-one]
HuVECs
  capillary-like tube formation: inhibited capillary-like tube formation in a dose-dependent fashion
[1]
  proliferation of breast cancer cell lines: reduces cellular proliferation of two breast cancer cell lines
[1]; listed as compound of formula I
  proliferation of breast cancer cell lines: inhibits proliferation of breast cancer cell lines
LB and INA-6 cells
  growth inhibition in the presence of IL-6 or IGF-1: Neither IL-6 nor IGF-1 protected against the growth inhibition
PI3K-δ
  PI3K enzymatic activity after lenalidomide: prevent the increase in PI3K enzymatic activity
[2]
  dose-limiting toxicities: No dose-limiting toxicities related to the compound of formula I were observed
PIP5Kβ
  IC50: > 1000 nM
[3]
  concentration level versus PI3Kδ EC50 in basophil: exceeds the PI3Kδ EC50 concentration in basophil for at least 12 hours
  tolerability in normal healthy volunteers: well tolerated at doses above commonly used therapeutic doses
[4]; N=5, p=0.0057
  internalization of CD20: prevented this effect
[4]; N=25, p=0.0102 and <0.0001
  surface expression of CD40 and CD86: prevent the up-regulation of CD40 and CD86 induced by lenalidomide
CLL patients; Day28+, baseline 186 pg/mL, 14 CLL patients
  mean plasma level of CCL3: 29 pg/mL
CLL patients; Day28+, baseline 316 pg/mL, 14 CLL patients
  mean plasma level of CXCL13: 40 pg/mL
CLL patients; Day28+, baseline 104, 14 CLL patients
  mean plasma level of TNFα: 29 pg/mL
CLL patients; Day28+, baseline 303, 14 CLL patients
  mean plasma level of CCL4: 70 pg/mL
CLL patients; Day28+, baseline 1067, 14 CLL patients
  mean plasma level of CCL22: 533 pg/mL
CLL patients; patients on treatment, n=12
  down-regulation of pAkt(T308) in peripheral CLL cells: > 90%
[5]
  pAkt in MCL lines exposed to survival factors: significant reduction of pAkt
[5]; two patients, 0.1 μM or 1 μM
  constitutive PI3K signaling in primary MCL cells: block constitutive PI3K signaling in primary MCL cells of two patients in a dose dependent manner
mTOR
  IC50: > 1000 nM
AKT and ERK pathways; INA-6 and LB, 0-6 hours
  phosphorylation of PDK-1 and FKHRL: significantly inhibited phosphorylation of upstream PDK-1 and downstream FKHRL
AKT and ERK pathways; low expression of P110δ, 0-5.0 μM, 6 hours
  phosphorylation of AKT or ERK, MM.1S cells: did not affect phosphorylation of AKT or ERK
AKT and ERK pathways; p110δ positive, 12 h
  phosphorylation of AKT and ERK1/2, INA-6 cells: significantly blocked phosphorylation of AKT and ERK1/2
